Patent US7528148B2, “Pyrazolo[3,4-B]pyridine compounds, and their use as phosphodiesterase inhibitors” (Glaxo Group Limited, priority 2002, dated 2009)

Columns and labels:
[1] = system: microfilaricidal activity; details: cited from earlier work
[2] = system: LPS-induced pulmonary neutrophilia and emesis in the conscious ferret; experiment: In vivo Assay 4: therapeutic index of orally-administered PDE4 inhibitors in the conscious ferret
Procedure: In vivo Assay 4. Evaluation of Therapeutic Index of Orally-administered PDE 4 Inhibitors in the Conscious Ferret
PDE4 inhibitors are prepared for oral p.o.) administration by dissolving in a fixed volume (1 ml) of acetone and then adding cremophor to 20% of the final volume. Acetone is evaporated by directing a flow of nitrogen gas onto the solution. Once the acetone is removed, the solution is made up to final volume with distilled water. LPS is dissolved in phosphate buffered saline.
Male ferrets (Mustela Pulorius Furo, weighing 1-2 kg) are transported and allowed to acclimatise for not less than 7 days. The diet comprises SDS diet C pelleted food given ad lib with Whiskers™ cat food given 3 times per week. The animals are supplied with pasteurised animal grade drinking water changed daily.
PDE4 inhibitors are administered orally (p.o.), using a dose volume of 1 ml/kg.
Ferrets are fasted overnight but allowed free access to water. The animals are orally dosed with vehicle or PDE 4 inhibitor using a 15 cm dosing needle that is passed down the back of the throat into the oesophagus. After dosing, the animals are returned to holding cages fitted with perspex doors to allow observation, and given free access to water. The animals are constantly observed and any emetic episodes (retching and vomiting) or behavioural changes are recorded. […]
Thirty minutes after oral dosing with compound or vehicle control, the ferrets are placed into sealed perspex containers and exposed to an aerosol of LPS (30 μg/ml) for 10 minutes. […] All emetic episodes and behavioural changes are recorded.
Six hours after LPS exposure the animals are killed by overdose of sodium pentobarbitone administered intraperitoneally. […] From this, the total number of neutrophils in the BAL sample is determined. […]
b) Emetic episodes—the number of vomits and retches are counted to determine the dose of PDE4 inhibitor that gives a 20% incidence of emesis (D20).
c) A therapeutic index (TI), using this assay, is then calculated for each PDE4 inhibitor using the following equation: […]

CC1Cc2ccccc2C(c2cnc3c(c(-c4ccccc4)nn3-c3ccccc3)c2O)=N1 (centres unmarked)
microfilaricidal activity [1]: no significant microfilaricidal activity

Oc1c(C2=NCCc3ccccc32)cnc2c1c(-c1ccccc1)nn2-c1ccccc1 [4-hydroxy-1,3-diphenyl-5-(3′,4′-dihydroisoquinol-1′-yl)-pyrazolo[3,4-b]pyridine, reference compound]
microfilaricidal activity [1]: no significant microfilaricidal activity

O=C(Nc1c(Cl)cncc1Cl)c1ccc(OC(F)F)c(OCC2CC2)c1 [roflumilast]
Ferret TI ([2]; D20/D50, p.o.): 1.1 | D20 for emesis ([2]; ferret, p.o., dose giving 20% incidence of emesis): 0.46 mg/kg | D50 for ferret neutrophilia ([2]; ferret, p.o., dose giving 50% inhibition of LPS-induced pulmonary neutrophilia): 0.42 mg/kg
